Results from patent US20170304177A1, “USE OF ISOSORBIDE ESTER AND N-ACYLATED AMINO ACID DERIVATIVES AS ANTI-AGEING AGENT FOR THE HUMAN SKIN” (SOCIETE D'EXPLOITATION DE PRODUITS POUR LES INDUSTRIES …, priority 2014, published 2017).

System: Normal human fibroblasts
Assay: In vitro migration of normal human fibroblasts (Oris migration plates, mitomycin C pretreatment, 40 h incubation, Calcein AM labelling)
Format: cell-based
Details: for (Dmigr) mean migration distance of the cells: 40 h, mean ± SD of quadruplicates; for [(Dmigr) − (Dmigr)control]/(Dmigr)control, percentage of migratory effect relative to the control: vs FCS culture control
Excerpt: The fibroblast migration test is a test commonly used in the cosmetics and pharmaceutical sector and is especially described in the international patent application published under the number WO 2010/056908 A1. It allows in vitro reproduction of the phenomenon of fibroblast migration; a decrease in the migratory capacities of the fibroblasts being reported as associated with aging of the skin (1) (4).
Normal human fibroblasts at the R5 passage were amplified in a T75 culture flask and then inoculated at 25 000 cells/well in specific culture plates. These plates are dedicated to migration (Oris™ from Platypus), integrating a central zone without initial deposition of cells (stoppers). After 96 hours of plate amplification and 2 hours before the treatment, all the wells were treated with mitomycin C (2 hours at 10 μg/ml), so as to stop the cell proliferation, and thus to observe only the migration phenomenon. The stoppers were removed, and the references, the products or standard medium for fibroblasts containing 2% fetal calf serum (FCS) were applied to the cells under 100 μl, and then incubated for 40 hours at 37° C. under 5% CO2. Each condition was performed in quadruplicate.
On conclusion of the incubation, the cells were labeled with Calcein AM (5 μM, 20 minutes at 37° C.), so as to visualize the viable cells by fluorescence (revelation of the cytoplasm). Photos were taken, after having inserted a black screen under the culture plates, so as to visualize only the zone where the cells were not deposited. Thus, only the cells which had migrated were photographed (×4 objective lens; with a ×0.7 reducer on the camera adapter). The mean migration distance of the cells (Dmigr) was measured with NIS-Elements-BR 3.0 (4 cells). The means and standard deviations of the distances were calculated on the quadruplicates. The percentages of migratory effect relative to the control, and also the statistics (Student test) were also calculated.

Epidermal Growth Factor (EGF)
(Dmigr) mean migration distance of the cells (EGF 10 ng/ml): 203 ± 20 μm
[(Dmigr) − (Dmigr)control]/(Dmigr)control, percentage of migratory effect relative to the control (EGF 10 ng/ml): +21%
(Dmigr) mean migration distance of the cells (EGF 50 ng/ml): 212 ± 8 μm
[(Dmigr) − (Dmigr)control]/(Dmigr)control, percentage of migratory effect relative to the control (EGF 50 ng/ml): +26%
Effect on migration distance of normal human fibroblasts (in words) (summary statement on Table 1, EGF at 10 and 50 ng/ml, compositions at 5 and 10 μg/ml): increase in the migration distance
